# Assay results: PubChem BioAssay AID256 (DTP/NCI, 2004)
# Values joined by “and” are separate entries in the source; they are usually repeats but may differ in a detail not shown here. Equal entries are not always repeated. Toxic doses and inconclusive results are not listed.
# System: CD2F1 mice, L1210 leukemia ip, survival T/C
# Experiment: NCI In Vivo Anticancer Drug Screen. Data for tumor model L1210 Leukemia (intraperitoneal) in CD2F1 (CDF1) mice
# Conditions: endpoint: mean survival time, higher = longer survival
# How it was run: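 Implant tumor; dose compound or vehicle; measure endpoint in both groups; report treated divided by control.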
# [1] = dose: 100.0 mg/kg/injection, schedule: Q01DX001 (ip), vehicle: saline
# [2] = dose: 200.0 mg/kg/injection, schedule: Q01DX001 (ip), vehicle: saline
# [3] = dose: 400.0 mg/kg/injection, schedule: Q01DX001 (ip), vehicle: saline
# [4] = dose: 25.0 mg/kg/injection, schedule: Q01DX009 (ip), vehicle: saline with Tween-80
# [5] = dose: 50.0 mg/kg/injection, schedule: Q01DX009 (ip), vehicle: saline with Tween-80
# [6] = dose: 50.0 mg/kg/injection, schedule: Q04DX003 (ip), vehicle: saline with Tween-80
# [7] = dose: 100.0 mg/kg/injection, schedule: Q01DX001 (ip), vehicle: saline with Tween-80
# [8] = dose: 100.0 mg/kg/injection, schedule: Q04DX003 (ip), vehicle: saline with Tween-80
# [9] = dose: 200.0 mg/kg/injection, schedule: Q01DX001 (ip), vehicle: saline with Tween-80
# [10] = dose: 200.0 mg/kg/injection, schedule: Q01DX009 (ip), vehicle: saline with Tween-80
# [11] = dose: 400.0 mg/kg/injection, schedule: Q01DX001 (ip), vehicle: saline with Tween-80
# [12] = dose: 400.0 mg/kg/injection, schedule: Q01DX009 (ip), vehicle: saline with Tween-80
# [13] = dose: 100.0 mg/kg/injection, schedule: Q04DX002 (ip), vehicle: saline with Tween-80
# [14] = dose: 200.0 mg/kg/injection, schedule: Q04DX002 (ip), vehicle: saline with Tween-80
# [15] = dose: 200.0 mg/kg/injection, schedule: Q04DX003 (ip), vehicle: saline with Tween-80
# [16] = dose: 400.0 mg/kg/injection, schedule: Q04DX003 (ip), vehicle: saline with Tween-80
# [17] = dose: 50.0 mg/kg/injection, schedule: Q01DX009 (ip), vehicle: saline
# [18] = dose: 100.0 mg/kg/injection, schedule: Q01DX009 (ip), vehicle: saline with Tween-80
# [19] = dose: 100.0 mg/kg/injection, schedule: Q04DX003 (ip), vehicle: saline
smiles,measurement,setting,value
CN(Cc1cnc2nc(N)nc(N)c2n1)c1ccc(C(=O)NC(CCC(N)=O)C(=O)O)cc1 (configuration not stated),T/C,"dose: 1.0 mg/kg/injection, schedule: Q01DX009 (ip), vehicle: sodium bicarbonate",102 % of control
same,T/C,"dose: 10.0 mg/kg/injection, schedule: Q01DX009 (ip), vehicle: sodium bicarbonate",118 % of control
same,T/C,"dose: 50.0 mg/kg/injection, schedule: Q01DX009 (ip), vehicle: sodium bicarbonate",150 % of control
same,T/C,"dose: 180.0 mg/kg/injection, schedule: Q04DX003 (ip), vehicle: sodium bicarbonate",158 % of control
same,T/C,"dose: 268.0 mg/kg/injection, schedule: Q04DX003 (ip), vehicle: sodium bicarbonate",114 % of control
same,T/C,"dose: 400.0 mg/kg/injection, schedule: Q04DX003 (ip), vehicle: sodium bicarbonate",110 % of control
Cc1nc(-c2ccccc2)c(Cc2ccccc2O)c(=O)[nH]1,T/C,[1],97 % of control
same,T/C,[2],97 % of control
same,T/C,[3],100 % of control
CC(=O)Nc1cccc(/C=C/c2ccc([N+](=O)[O-])cc2)c1,T/C,"dose: 100.0 mg/kg/injection, schedule: Q01DX001 (ip), vehicle: Klucel (hydroxypropylcellulose) (HPC)",100 % of control
same,T/C,"dose: 200.0 mg/kg/injection, schedule: Q01DX001 (ip), vehicle: Klucel (hydroxypropylcellulose) (HPC)",103 % of control
same,T/C,"dose: 400.0 mg/kg/injection, schedule: Q01DX001 (ip), vehicle: Klucel (hydroxypropylcellulose) (HPC)",93 % of control
CCOc1ccc(-n2c(-c3ccc(Br)cc3)csc2=NC(=O)c2ccccc2F)cc1,T/C,[4],92 % of control and 100 % of control
same,T/C,"dose: 25.0 mg/kg/injection, schedule: Q04DX003 (ip), vehicle: saline with Tween-80",88 % of control
same,T/C,[5],88 % of control
same,T/C,[6],94 % of control
same,T/C,[7],93 % of control
same,T/C,[8],92 % of control and 95 % of control
same,T/C,[9],91 % of control
same,T/C,[10],88 % of control and 90 % of control
same,T/C,[11],95 % of control
same,T/C,[12],90 % of control
O=C(O)CCCCCCCC(Br)C(Br)CCCCCCCC(=O)O (configuration not stated),T/C,"dose: 25.0 mg/kg/injection, schedule: Q04DX002 (ip), vehicle: saline with Tween-80",95 % of control
same,T/C,"dose: 50.0 mg/kg/injection, schedule: Q04DX002 (ip), vehicle: saline with Tween-80",91 % of control
same,T/C,[13],91 % of control
same,T/C,[14],95 % of control
COc1ccccc1OC(=O)Nc1cc([N+](=O)[O-])ccc1C,T/C,[8],89 % of control
same,T/C,[15],97 % of control
same,T/C,[16],87 % of control
c1ccc([B-]2([C+]3CCCCC3)N3CCCCC3C3CCCCN32)cc1 (configuration not stated),T/C,"dose: 3.12 mg/kg/injection, schedule: Q01DX009 (ip), vehicle: saline",90 % of control
same,T/C,"dose: 6.25 mg/kg/injection, schedule: Q01DX009 (ip), vehicle: saline",95 % of control
same,T/C,"dose: 12.5 mg/kg/injection, schedule: Q01DX009 (ip), vehicle: saline",101 % of control
same,T/C,"dose: 25.0 mg/kg/injection, schedule: Q01DX009 (ip), vehicle: saline",102 % of control
same,T/C,[17],86 % of control
CC(C)=N/N=C(N)/C(N)=N/N=C(C)C,T/C,[13],103 % of control
same,T/C,[14],106 % of control
same,T/C,"dose: 400.0 mg/kg/injection, schedule: Q04DX002 (ip), vehicle: saline with Tween-80",95 % of control
CC(=O)Nc1ccc2oc(=O)ccc2c1,T/C,[8],101 % of control
same,T/C,[15],101 % of control
same,T/C,[16],101 % of control
CC(=O)OC1CC2CCC1(C)C2(C)C (configuration not stated),T/C,[8],101 % of control
same,T/C,[15],95 % of control
CO[C@H]1/C=C/O[C@@]2(C)Oc3c(C)c(O)c4c(O)c(c(/C=N/N5C(C)CN(Cc6ccccc6)CC5C)c(O)c4c3C2=O)NC(=O)/C(C)=C\C=C\[C@H](C)[C@H](O)[C@@H](C)[C@@H](O)[C@@H](C)[C@H](OC(C)=O)[C@@H]1C (some centres not stated),T/C,[5],96 % of control
same,T/C,[18],100 % of control
same,T/C,[10],96 % of control
same,T/C,[15],90 % of control
CCOC(=O)C[Se]CC(=O)OCC,T/C,[7],100 % of control
same,T/C,[9],103 % of control
N=C(N)SC(c1ccccc1)c1ccccc1,T/C,"dose: 25.0 mg/kg/injection, schedule: Q04DX003 (ip), vehicle: saline",100 % of control
same,T/C,"dose: 50.0 mg/kg/injection, schedule: Q04DX003 (ip), vehicle: saline",94 % of control
same,T/C,[19],102 % of control
CC1=CCC=C(CNc2ncnc3nc[nH]c23)C1,T/C,[8],87 % of control
COCC/C=C/CCl,T/C,[4],100 % of control
same,T/C,[5],92 % of control
same,T/C,[18],100 % of control
COc1ccc(OC)c(NC(=O)Oc2ccc(F)cc2Cl)c1,T/C,[18],101 % of control
same,T/C,[10],104 % of control
same,T/C,[12],102 % of control
CCOP(=O)(OCC)C(C#N)Cc1ccccc1OC (configuration not stated),T/C,[19],98 % of control
same,T/C,"dose: 200.0 mg/kg/injection, schedule: Q04DX003 (ip), vehicle: saline",101 % of control
Cc1[nH]c2cc(Cl)ccc2c1CC(=O)O,T/C,"dose: 100.0 mg/kg/injection, schedule: Q01DX001 (ip), vehicle: other",101 % of control
same,T/C,"dose: 200.0 mg/kg/injection, schedule: Q01DX001 (ip), vehicle: other",98 % of control
same,T/C,"dose: 400.0 mg/kg/injection, schedule: Q01DX001 (ip), vehicle: other",98 % of control
O=P(c1ccccc1)(c1ccccc1)P(=O)(c1ccccc1)c1ccccc1,T/C,[7],90 % of control
same,T/C,[9],90 % of control
same,T/C,[11],96 % of control
COC(=S)C(c1ccccc1)(c1ccccc1)c1ccccc1,T/C,"dose: 100.0 mg/kg/injection, schedule: Q04DX002 (ip), vehicle: Klucel (hydroxypropylcellulose) (HPC)",93 % of control
same,T/C,"dose: 200.0 mg/kg/injection, schedule: Q04DX002 (ip), vehicle: Klucel (hydroxypropylcellulose) (HPC)",89 % of control
same,T/C,"dose: 400.0 mg/kg/injection, schedule: Q04DX002 (ip), vehicle: Klucel (hydroxypropylcellulose) (HPC)",89 % of control
Nc1ncnc2c1ncn2CCCN1C(=O)c2ccccc2C1=O,T/C,[18],93 % of control
same,T/C,[10],95 % of control
same,T/C,[12],101 % of control
CCN(CC)/C(N)=N\c1nc(C)c2cc(Cl)ccc2n1,T/C,[1],103 % of control
O=C(Nc1ccccc1)Oc1ccc2ccccc2c1,T/C,[1],96 % of control
same,T/C,[2],94 % of control
same,T/C,[3],97 % of control
O=[N+]([O-])c1cccnc1Oc1cccc(C(F)(F)F)c1,T/C,"dose: 100.0 mg/kg/injection, schedule: Q01DX009 (ip), vehicle: saline",95 % of control
same,T/C,"dose: 200.0 mg/kg/injection, schedule: Q01DX009 (ip), vehicle: saline",96 % of control
same,T/C,"dose: 400.0 mg/kg/injection, schedule: Q01DX009 (ip), vehicle: saline",91 % of control
CC(=O)NC1CC(n2cnc3c(=O)[nH]cnc32)OC1C(C)O (configuration not stated),T/C,"dose: 12.5 mg/kg/injection, schedule: Q01DX005 (ip), vehicle: water",101 % of control
same,T/C,"dose: 25.0 mg/kg/injection, schedule: Q01DX005 (ip), vehicle: water",98 % of control
same,T/C,"dose: 50.0 mg/kg/injection, schedule: Q01DX005 (ip), vehicle: water",101 % of control
same,T/C,"dose: 100.0 mg/kg/injection, schedule: Q01DX005 (ip), vehicle: water",98 % of control
same,T/C,"dose: 200.0 mg/kg/injection, schedule: Q01DX005 (ip), vehicle: water",92 % of control
O=c1cc(-c2ccccc2)[nH]c(=S)[nH]1,T/C,[7],115 % of control
same,T/C,[9],102 % of control
same,T/C,[11],97 % of control
CC(=O)N(C(C)=O)c1ccc2c3c(cccc13)CC2,T/C,[6],110 % of control
same,T/C,[8],104 % of control
same,T/C,[15],101 % of control
Nc1nc(N)nc(-c2ccccn2)n1,T/C,[17],112 % of control
O=C(O)c1ccc([N+](=O)[O-])cc1P(=O)(O)O,T/C,"dose: 18.75 mg/kg/injection, schedule: Q01DX009 (ip), vehicle: saline",98 % of control
same,T/C,"dose: 37.5 mg/kg/injection, schedule: Q01DX009 (ip), vehicle: saline",98 % of control
same,T/C,"dose: 75.0 mg/kg/injection, schedule: Q01DX009 (ip), vehicle: saline",95 % of control
Fc1c(F)c(F)c([Si](c2c(F)c(F)c(F)c(F)c2F)(c2c(F)c(F)c(F)c(F)c2F)c2c(F)c(F)c(F)c(F)c2F)c(F)c1F,T/C,[18],97 % of control
same,T/C,[10],100 % of control
same,T/C,[12],98 % of control
